Data on five compounds can be found in US20210154188A1, “ALK5 INHIBITORS, CONJUGATES, AND USES THEREOF” (SILVERBACK THERAPEUTICS, INC., priority 2018, published 2021).

Usually IC50 stands for the concentration that gives 50% inhibition.

In test [1] the target is T1, ALK5 (Homo sapiens, UniProt P36897).
T1 construct: purchased Reaction Biology Corp (Malvern, PA)
T1 sequence (P36897 34-503): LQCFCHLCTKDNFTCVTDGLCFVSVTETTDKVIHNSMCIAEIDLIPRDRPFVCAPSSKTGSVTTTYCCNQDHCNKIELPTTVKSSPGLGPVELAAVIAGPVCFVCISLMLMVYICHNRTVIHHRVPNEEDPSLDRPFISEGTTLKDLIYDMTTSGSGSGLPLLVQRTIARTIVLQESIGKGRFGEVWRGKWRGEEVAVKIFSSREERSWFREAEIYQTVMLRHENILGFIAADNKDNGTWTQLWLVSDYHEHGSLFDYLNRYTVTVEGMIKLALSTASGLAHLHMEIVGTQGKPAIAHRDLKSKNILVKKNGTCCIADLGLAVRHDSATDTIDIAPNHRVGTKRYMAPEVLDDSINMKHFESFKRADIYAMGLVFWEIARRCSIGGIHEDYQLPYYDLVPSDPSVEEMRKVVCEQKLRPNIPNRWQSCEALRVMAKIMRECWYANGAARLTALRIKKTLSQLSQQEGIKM
The test can be described thus: ALK5 enzyme inhibition assay (33P-ATP filter-binding, Reaction Biology Corp). The class given is biochemical. As to conditions: casein substrate 1 mg/mL, 10 uM ATP. As to the method:
ALK5 enzyme inhibition assays were performed by Reaction Biology Corp (Malvern, PA). 1 mg/mL of peptide subtrate (casein) and 10 uM ATP were prepared in a mixture of fresh reaction buffer. The kinase was delivered into the substrate solution which was gently mixed. Compounds in 100% DMSO were added to the kinase reaction mixture by Acoustic technology (Echo550; nanoliter range) and the mixture was incubated for 20 min at room temperature. ^33P-ATP (Specific activity 10 uCi/uL) was added into the reaction mixture to initiate the reaction and the reaction mixture was incubated for 2 hours at room temperature. Radioactivity was detected by filter-binding method and kinase activity data were expressed as the percent remaining kinase activity in test samples compared to vehicle (dimethyl sulfoxide) reactions. IC50 values and curve fits were obtained using Prism (GraphPad Software).

Test [2] relates to TGFb/SMAD Signaling Pathway SBE reporter cell line. The test can be described thus: TGFb reporter assay (luciferase). Format: cell-based. As to conditions: 5-6 h preincubation, then TGFb, 18 h, luminescence. How it is done:
TGFb/SMAD Signaling Pathway SBE reporter cell line was obtained from BPS Bioscience. Cells were passed/expanded/stored in liquid nitrogen per supplier's instruction with the exception that growth media was changed to DMEM-C with Geneticin (DMEM supplemented with 10% fetal bovine serum, 1× NEAA, 1 mM Pyruvate, 2 mM glutamine, 50 μg/mL penicillin, 50 U/mL streptomycin and 400 ug/mL of Geneticin). The assay media was MEM supplemented with 0.5% fetal bovine serum, 1× NEAA, 1 mM Pyruvate, 50 μg/mL penicillin and 50 U/mL streptomycin.
Reporter cells were harvested from the tissue culture flasks by incubation in small quantity of Versene at room temperature for three to five minutes after the media in the flask was removed and cells rinsed with PBS. Cells were counted and diluted in the assay media at ˜0.8×10^6 cells/mL then 50 uL/well were added to 96-well assay plate. Test samples (at desired concentrations diluted in assay media) were added to assay plate containing the 50 uL/well of cells (or media only), 50 uL per well, and incubated for 5-6 hours at 37° C. in a 5% CO2 humidified incubator. After that time, 15 uL of TGFb diluted to 12.5 ng/mL in the assay media was added to the plate. Controls included TGFb titration (from 25 to 0 ng/mL) without inhibitors, and media only (without cells, inhibitor or TGFb). Plates were incubated at 37° C. in a 5% CO2 humidified incubator for 18 h. Luciferase substrate solution was subsequently added at 75 uL per well, incubated in dark with shaking at room temperature for 10 min, and luminescence was measured using a luminometer.
(In general: In a reporter assay the amount or activity of a reporter protein is the signal.)

With `Cc1cccc(-c2nc(CNCc3cccc4ccccc34)[nH]c2-c2ccc3ncnn3c2)n1` [Compound 1.57, 1-(5-([1,2,4]triazolo[1,5-a]pyridin-6-yl)-4-(6-methylpyridin-2-yl)-1H-imidazol-2-yl)-N-(naphthalen-1-ylmethyl)methanamine], the IC50 in test [1] and in test [2] was 10 to 100 nM in each case.

Take `Cc1cccc(-c2nc(CNCc3ccc4ccccc4c3)[nH]c2-c2ccc3ncnn3c2)n1` [Compound 1.58, 1-(5-([1,2,4]triazolo[1,5-a]pyridin-6-yl)-4-(6-methylpyridin-2-yl)-1H-imidazol-2-yl)-N-(naphthalen-2-ylmethyl)methanamine]: the IC50 in test [1] and in test [2] was 100 to 1000 nM each time.

Turning to `Cc1cccc(-c2nc(CNCCc3cccc4ccccc34)[nH]c2-c2ccc3ncnn3c2)n1` [Compound 1.59, N-((5-([1,2,4]triazolo[1,5-a]pyridin-6-yl)-4-(6-methylpyridin-2-yl)-1H-imidazol-2-yl)methyl)-2-(naphthalen-1-yl)ethan-1-amine], the half-maximal inhibitory concentration (IC50) in test [1] and in test [2] was 10 to 100 nM throughout.

In the case of `Cc1cccc(-c2nc(CNCCc3ccnc4ccccc34)[nH]c2-c2ccc3ncnn3c2)n1` [Compound 1.60, N-((5-([1,2,4]triazolo[1,5-a]pyridin-6-yl)-4-(6-methylpyridin-2-yl)-1H-imidazol-2-yl)methyl)-2-(quinolin-4-yl)ethan-1-amine], the half-inhibitory concentration (IC50) in test [1] fell in the range of 100 to 1000 nM; in test [2], 10 to 100 nM.

Take `Cc1cccc(-c2nc(CNCCc3cccc4ncccc34)[nH]c2-c2ccc3ncnn3c2)n1` [Compound 1.61, N-((5-([1,2,4]triazolo[1,5-a]pyridin-6-yl)-4-(6-methylpyridin-2-yl)-1H-imidazol-2-yl)methyl)-2-(quinolin-5-yl)ethan-1-amine]: the half-maximal inhibitory concentration (IC50) in test [1] was in the range of 100 to 1000 nM; in test [2] it was 10 to 100 nM.
